Source: US9988407B2, “Prodrugs of prostate specific membrane antigen (PSMA) inhibitor” (THE JOHNS HOPKINS UNIVERSITY, priority 2014, dated 2018)
“And” between values parts separate entries of the source, which are not always exact repeats. Equal values may be shown once.

Legend:
[1] = Chemical stability in HBSS buffer (pH 7.4) / simulated gastric fluid; format: physicochemical; conditions: chemical hydrolysis / HBSS buffer
Procedure: The chemical stability of prodrugs was evaluated using simulated gastric fluid (pH 1.2) and Hanks' Balanced Salt Solution (HBSS) buffer (pH 7.4). Briefly, prodrugs were spiked (10 μM) in respective solutions and incubated at 37° C. for 1 h. At predetermined time points (0, 30 and 60 min), aliquots of 100 μL were removed and diluted with 100 μL of water. Prodrug disappearance was monitored using the developed liquid chromatography and tandem mass spectrometry (LC/MS/MS) method described below.
(§1) For LC/MS/MS, prodrugs were separated with Thermo Scientific Accela UPLC system coupled to Accela open autosampler on an Agilent C18 (100×2.1 mm id) UPLC column. The autosampler was temperature controlled and operating at 10° C. The mobile phase used for the chromatographic separation was composed of acetonitrile/water containing 0.1% formic acid and was run at a flow rate of 0.5 mL/minute for 4.5 minutes using gradient elution. The column effluent was monitored using TSQ Vantage triple-quadrupole mass spectrometric detector, equipped with an electrospray probe set in the positive ionization mode. Samples were introduced into the ionization source through a heated nebulized probe (350° C.).
(§2) For quantification of compound remaining, disappearance of prodrugs was measured from ratio of peak areas of analyte to IS. Percentage remaining was calculated in the following manner: […]

[2] = Metabolic stability in mouse liver microsomes; format: in vitro ADME; conditions: 10 μM, 37° C.
Outline: (§3)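 Prodrugs at 10 μM were incubated in plasma or liver microsomes at 37° C, with triplicate samples taken at 0, 30 and 60 min and quenched in cold acetonitrile. Loss of prodrug was followed by LC/MS/MS in positive electrospray mode. Percent remaining came from the analyte-to-internal-standard peak-area ratio.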

[3] = Metabolic stability in human plasma; format: in vitro ADME; conditions: 10 μM, 37° C.
Outline: as §3

[4] = Metabolic stability in dog liver microsomes; format: in vitro ADME; conditions: 10 μM, 37° C.
Procedure: (§4) For metabolic stability, plasma (mouse, dog, monkey and human) and liver microsomes (mouse, dog, monkey and human) were used. For stability, prodrugs (10 μM) were spiked in each matrix and incubated in an orbital shaker at 37° C. At predetermined times (0, 30 and 60 min), 100 μL aliquots of the mixture in triplicate were removed and the reaction quenched by addition of three times the volume of ice cold acetonitrile spiked with the internal standard (losartan 5 μM). The samples were vortexed for 30 s and centrifuged 12000 g for 10 min. 50 μL supernatant diluted with 50 μL water was transferred to a 250 μL polypropylene vial sealed with a Teflon cap. Prodrug disappearance was monitored over time using a liquid chromatography and tandem mass spectrometry (LC/MS/MS) method as described below.
as §1, §2

[5] = Metabolic stability in dog plasma; format: in vitro ADME; conditions: 10 μM, 37° C.
Procedure: as §4, §1, §2

[6] = Metabolic stability in monkey liver microsomes; format: in vitro ADME; conditions: 10 μM, 37° C.
Procedure: as §4, §1, §2

[7] = In vivo pharmacokinetics in mice, peroral, bioanalysis method 2 (2-PMPA release); conditions: rodents and dogs
Procedure: Blood was obtained via cardiac puncture and tissue dissected at 0 min, 15 min, 30 min, 1 h, 2 h, and 4 h post dose (n=3 per time point). Single time point studies were conducted at 30 min (N=3) following dosing. Plasma was harvested from blood by centrifugation. Mean concentration-time data was used for pharmacokinetic (PK) analysis. Non-compartmental-analysis module in WinNonlin® (version 5.3) was used to assess pharmacokinetic parameters. Peak plasma concentrations (Cmax) and time to Cmax (Tmax) were the observed values. Area under the curve (AUC) was calculated by log-linear (p.o.) trapezoidal rule to the end of sample collection (AUClast) and extrapolated to infinity (AUC0-∞) by dividing the last quantifiable concentration by the terminal disposition rate constant (ke). […] The tissues were stored in −20° C. for 1 h and then homogenized. The calibration curve for the tissues was developed using naïve mouse brains from untreated animals as a matrix. For sciatic nerve, the nerves were weighed and homogenized in 50 μL methanol and the calibration curve was developed using naïve sciatic nerves from untreated animals as a matrix. The samples were vortexed and centrifuged. […] Supernatant was dried under a gentle stream of nitrogen at 45° C. and the residue reconstituted with 75 μL of acetonitrile and vortexed. 25 μL of derivatizing agent N-tert-Butyldimethysilyl-N-methyltrifluoro-acetamide (MTBSTFA) was added to microcentrifuge tubes, vortexed, and heated at ˜60 OC for 40 min. At the end of 40 min, the derivatized samples ˜75 μL were transferred to a 250 μL polypropylene vials and were analyzed via LC/MS/MS. Chromatographic analysis was performed using an Accela™ ultra high-performance system consisting of an analytical pump, and an autosampler coupled with TSQ Vantage mass spectrometer (Thermo Fisher Scientific Inc., Waltham Mass.). […] The total run time for each analyte was 5.0 min. Chromatographic analysis will be performed on Accela UPLC.

[8] = In vivo pharmacokinetics in beagle dogs, p.o.; conditions: 10 mg/kg (equiv 2-PMPA), N=1, single dose
Procedure: (by mouth). Blood samples were collected from the jugular vein (˜1 mL) via direct venipuncture, placed into potassium oxalate with sodium fluoride tubes, and maintained on wet ice until processed. Blood samples were centrifuged at a temperature of 4° C., at 3000×g, for 5 minutes. Blood samples were maintained chilled throughout processing. Plasma was collected in tubes and flash frozen. Samples were stored in a freezer set to maintain −60° C. to −80 OC until further analysis. […] The tissues were stored in −20° C. for 1 h and then homogenized. The calibration curve for the tissues was developed using naïve mouse brains from untreated animals as a matrix. For sciatic nerve, the nerves were weighed and homogenized in 50 μL methanol and the calibration curve was developed using naïve sciatic nerves from untreated animals as a matrix. The samples were vortexed and centrifuged. […] Supernatant was dried under a gentle stream of nitrogen at 45° C. and the residue reconstituted with 75 μL of acetonitrile and vortexed. 25 μL of derivatizing agent N-tert-Butyldimethysilyl-N-methyltrifluoro-acetamide (MTBSTFA) was added to microcentrifuge tubes, vortexed, and heated at ˜60 OC for 40 min. At the end of 40 min, the derivatized samples ˜75 μL were transferred to a 250 μL polypropylene vials and were analyzed via LC/MS/MS. […]

[9] = In vitro metabolic stability screen in plasma and liver subcellular fractions (results in words); format: in vitro ADME; conditions: 60 min incubation
Outline: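 Prodrugs at 10 μM were incubated at 37° C in plasma and liver microsomes from mouse, dog, monkey and human. Samples were taken at 0, 30 and 60 min and quenched in acetonitrile. Percent remaining was quantified by LC/MS/MS (positive ESI) as analyte/internal standard peak-area ratio.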

CC(C)OC(=O)OCOC(=O)C(CCC(=O)O)CP(=O)(OCOC(=O)OC(C)C)OCOC(=O)OC(C)C (stereo not shown) [Compound 10]
chemical stability [1]: sufficient chemical stability
Percentage remaining ([2]; 0 min): 100%
Percentage remaining ([2]; 30 min): 1%
Percentage remaining ([2]; 60 min): 0%
Percentage remaining ([3]; 0 min): 100%
Percentage remaining ([3]; 30 min, listed as TRIS-POC): 102% and 64%
Percentage remaining ([3]; 60 min, listed as TRIS-POC): 77% and 48%
Percentage remaining ([4]; 0 min): 100%
Percentage remaining ([4]; 30 min): 1%
Percentage remaining ([4]; 60 min): 0%
Percentage remaining ([5]; 0 min): 100%
Percentage remaining ([5]; 30 min): 67%
Percentage remaining ([5]; 60 min): 28%
Percentage remaining ([6]; 0 min): 100%
Percentage remaining ([6]; 30 min): 0%
Percentage remaining ([6]; 60 min): 0%
oral bioavailability [7]: excellent oral bioavailability
Cmax [8]: high Cmax
in vitro metabolic stability [9]: instability in plasma and liver subcellular fractions
